Measurements: DBAASP
Converted amounts (≈) assume the structure as drawn. “And” between values parts separate entries of the source, which are not always exact repeats. Identical values can stand only once.

Legend:
Assay in all cases: ≥ marks a high value that may be exact or a test limit, other limits are often not marked, values filed in µg/mL are converted to µM
[1] = test system: Staphylococcus aureus ATCC 29213
[2] = test system: Escherichia coli ATCC 25922
[3] = test system: Enterococcus faecalis ATCC 29212
[4] = test system: Pseudomonas aeruginosa ATCC 27853
[5] = test system: Staphylococcus aureus ATCC 25923
[6] = test system: Candida albicans ATCC 90028
[7] = test system: Staphylococcus epidermidis ATCC 12228
Staphylococcus aureus = test system: Staphylococcus aureus
Escherichia coli = test system: Escherichia coli

SMILES | MIC [1] [µM] | MIC [2] [µM] | MIC [4] [µM] | MIC [5] | other results
CC[C@H](C)[C@H](NC(=O)CNC(=O)[C@H](CCCCN)NC(=O)[C@H](CC(C)C)NC(=O)[C@H](CCSC)NC(=O)[C@H](CC(N)=O)NC(=O)[C@H](CCCCN)NC(=O)[C@H](Cc1c[nH]c2ccccc12)NC(=O)[C@H](CC(C)C)NC(=O)[C@H](C)N)C(=O)NCC(=O)N[C@@H](CCCCN)C(=O)N[C@@H](CC(C)C)C(=O)N[C@@H](C)C(=O)NCC(=O)N[C@@H](CCC(N)=O)C(=O)N[C@@H](C)C(=O)N[C@@H](C)C(=O)N[C@@H](CC(C)C)C(=O)NCC(=O)N[C@@H](C)C(=O)N[C@H](C(=O)N[C@@H](CCCCN)C(=O)N[C@H](C(=O)N[C@@H](CC(C)C)C(=O)N[C@H](C(=O)NCC(=O)N[C@@H](C)C(=O)N[C@@H](CCC(=O)O)C(=O)N[C@@H](CO)C(=O)O)C(C)C)[C@@H](C)O)C(C)C [ALWKNMLKGIGKLAGQAALGAVKTLVGAES] | – | 1.3 (≈ 3.9 µg/mL) | 5.4 (≈ 16.2 µg/mL) | 2.7 µM (≈ 8.09 µg/mL) | MIC [3]: 22 µM (≈ 65.9 µg/mL)
CC[C@H](C)[C@H](NC(=O)CNC(C)=O)C(=O)NCC(=O)N[C@@H](CCCCN)C(=O)N[C@@H](Cc1ccccc1)C(=O)N[C@@H](CC(C)C)C(=O)N[C@@H](Cc1cnc[nH]1)C(=O)N[C@@H](CO)C(=O)N[C@@H](C)C(=O)N[C@@H](CCCCN)C(=O)N[C@@H](CCCCN)C(=O)N[C@@H](Cc1ccccc1)C(=O)NCC(=O)N[C@@H](CCCCN)C(=O)N[C@@H](C)C(=O)N[C@@H](Cc1ccccc1)C(=O)N[C@H](C(=O)NCC(=O)N[C@@H](CCC(N)=O)C(=O)N[C@H](C(=O)N[C@@H](CCSC)C(=O)N[C@@H](CC(N)=O)C(=O)N[C@@H](CO)C(N)=O)[C@@H](C)CC)C(C)C [GIGKFLHSAKKFGKAFVGQIMNS] | – | 20 (≈ 50.1 µg/mL) | – | – | MIC [7]: 20 µM (≈ 50.1 µg/mL)
CC[C@H](C)[C@H](NC(=O)CN)C(=O)N[C@@H](CCCCN)C(=O)N[C@@H](CCCCN)C(=O)N[C@@H](Cc1c[nH]c2ccccc12)C(=O)N1CCC[C@H]1C(=O)N[C@@H](Cc1cnc[nH]1)C(=O)N[C@@H](CCCCN)C(=O)N1CCC[C@H]1C(=O)N[C@@H](CCCCN)C(=O)N[C@@H](CCCCN)C(=O)N[C@@H](Cc1ccccc1)C(=O)NCC(=O)N[C@@H](CCCCN)C(=O)N[C@@H](CCCCN)C(=O)N[C@@H](Cc1ccccc1)C(=O)N[C@H](C(=O)N[C@@H](CCCCN)C(=O)N[C@@H](CCCCN)C(=O)N[C@H](C(=O)N[C@@H](CCCCN)C(=O)N[C@@H](CCCCN)C(=O)N[C@@H](CO)C(N)=O)[C@@H](C)CC)C(C)C [GIKKWPHKPKKFGKKFVKKIKKS] | – | 10 (≈ 27.7 µg/mL) | – | – | MIC [7]: 5 µM (≈ 13.8 µg/mL)
CC[C@H](C)[C@H](NC(=O)CNC(=O)[C@H](CO)NC(=O)[C@H](CC(C)C)NC(=O)[C@@H](NC(=O)CN)[C@@H](C)CC)C(=O)N[C@@H](CC(C)C)C(=O)NCC(=O)N[C@@H](C)C(=O)NCC(=O)N[C@@H](CCCCN)C(=O)N[C@@H](CO)C(=O)N[C@@H](CC(C)C)C(=O)N[C@H](C(=O)N[C@H]1CSSC[C@@H](C(=O)O)NC(=O)[C@H](CC(C)C)NC(=O)CNC(=O)[C@H](CO)NC(=O)[C@H](CC(C)C)NC(=O)CNC1=O)C(C)C [GILSGILGAGKSLVCGLSGLC] | – | – | – | – | MIC (Staphylococcus aureus): > 100 µM; MIC (Escherichia coli): 50 µM (≈ 95.8 µg/mL)
NCC(=O)N[C@@H](CCCN=C(N)N)C(=O)N[C@@H](CCCN=C(N)N)C(=O)N1CCC[C@H]1C(=O)N[C@@H](CCCN=C(N)N)C(=O)N1CCC[C@H]1C(=O)N[C@@H](CCCN=C(N)N)C(=O)N1CCC[C@H]1C(=O)N[C@@H](CCCN=C(N)N)C(=O)N1CCC[C@H]1C(=O)N[C@@H](Cc1ccccc1)C(=O)N[C@@H](Cc1ccccc1)C(=O)N[C@@H](Cc1ccccc1)C(N)=O [GRRPRPRPRPFFF] | 40 (≈ 67.4 µg/mL) | 160 (≈ 270 µg/mL) | > 160 | – | –
CC(C)C[C@H](NC(=O)[C@H](CO)NC(=O)[C@@H](N)CCCCN)C(=O)N[C@H](C(=O)N[C@@H](CCCN=C(N)N)C(=O)N[C@@H](CCCN=C(N)N)C(=O)N[C@@H](Cc1c[nH]c2ccccc12)C(=O)N[C@@H](CCCN=C(N)N)C(=O)N[C@@H](CO)C(=O)N[C@@H](CCCN=C(N)N)C(=O)N[C@@H](Cc1c[nH]c2ccccc12)C(N)=O)C(C)C [KSLVRRWRSRW] | – | 30 (≈ 45.9 µg/mL) | 40 (≈ 61.2 µg/mL) | 30 µM (≈ 45.9 µg/mL) | –
CC[C@H](C)[C@H](NC(=O)CNC(=O)CNC(=O)[C@H](CC(C)C)NC(=O)[C@H](CC(C)C)NC(=O)[C@H](CO)NC(=O)CNC(=O)[C@@H](NC(=O)[C@H](CC(C)C)NC(=O)[C@@H](N)CC(N)=O)C(C)C)C(=O)N[C@@H](CC(C)C)C(=O)N[C@@H](CCCCN)C(=O)N[C@@H](CCCCN)C(N)=O [NLVGSLLGGILKK] | > 534 | 457 (≈ 600 µg/mL) | – | – | –
CC[C@H](C)[C@H](NC(=O)[C@H](CCCCN)NC(=O)[C@H](C)NC(=O)[C@@H](N)CCC(N)=O)C(=O)N[C@@H](CCCN=C(N)N)C(=O)N[C@H](C(=O)N[C@@H](CCCN=C(N)N)C(=O)N[C@@H](CC(C)C)C(=O)N[C@@H](CO)C(=O)N[C@@H](C)C(=O)O)C(C)C [QAKIRVRLSA] | > 56.1 | 112 (≈ 128 µg/mL) | 28 (≈ 32 µg/mL) | – | –
NC(=O)[C@H](CCCN=C(N)N)NC(=O)[C@H](Cc1c[nH]c2ccccc12)NC(=O)[C@H](CCCN=C(N)N)NC(=O)[C@H](Cc1c[nH]c2ccccc12)NC(=O)[C@@H](N)CCCN=C(N)N [RWRWR] | – | 233 (≈ 200 µg/mL) | 58.2 (≈ 49.9 µg/mL) | 58.2 µM (≈ 49.9 µg/mL) | –

Continued, in another order:

MIC [1] [µM] | MIC [2] [µM] | MIC [4] [µM] | MIC [5] | SMILES | other results
> 40 | 10 (≈ 16.4 µg/mL) | – | – | CC[C@H](C)[C@H](NC(=O)[C@H](CCCN=C(N)N)NC(=O)[C@H](CCC(N)=O)NC(=O)[C@@H](NC(=O)[C@@H](NC(=O)[C@H](CCCN=C(N)N)NC(=O)[C@H](CCCCN)NC(=O)[C@H](C)N)[C@@H](C)CC)C(C)C)C(=O)N[C@@H](CCCCN)C(=O)N[C@@H](CC(=O)O)C(=O)N[C@@H](Cc1ccccc1)C(=O)N[C@@H](CC(C)C)C(=O)N[C@@H](CCCN=C(N)N)C(=O)O [AKRIVQRIKDFLR] | –
> 40 | 10 (≈ 17 µg/mL) | – | – | CC[C@H](C)[C@H](NC(=O)[C@H](CCCN=C(N)N)NC(=O)[C@H](CCC(N)=O)NC(=O)[C@@H](NC(=O)[C@@H](NC(=O)[C@H](CCCN=C(N)N)NC(=O)[C@H](CCCCN)NC(=O)[C@@H](N)Cc1ccccc1)[C@@H](C)CC)C(C)C)C(=O)N[C@@H](CCCCN)C(=O)N[C@@H](CC(=O)O)C(=O)N[C@@H](CCC(N)=O)C(=O)N[C@@H](CC(C)C)C(=O)N[C@@H](CCCN=C(N)N)C(=O)O [FKRIVQRIKDQLR] | –
– | > 160 | – | 10 µM (≈ 14.2 µg/mL) | CC[C@H](C)[C@H](NC(=O)[C@@H]1CCCN1C(=O)[C@H](CC(C)C)NC(=O)[C@@H](N)Cc1ccccc1)C(=O)N[C@@H](CC(C)C)C(=O)NCC(=O)N[C@@H](CCCCN)C(=O)N[C@@H](CC(C)C)C(=O)N[C@@H](CC(C)C)C(=O)N[C@@H](CO)C(=O)NCC(=O)N[C@@H](Cc1ccccc1)C(=O)N[C@@H](CC(C)C)C(N)=O [FLPILGKLLSGFL] | MIC [6]: ≥ 80 µM
5 (≈ 8.89 µg/mL) | 5 (≈ 8.89 µg/mL) | – | – | CC(C)C[C@H](NC(=O)[C@H](CCCCN)NC(=O)[C@H](CC(C)C)NC(=O)[C@H](CC(C)C)NC(=O)[C@H](CCCCN)NC(=O)[C@H](CCCCN)NC(=O)[C@H](C)NC(=O)[C@H](CC(C)C)NC(=O)[C@H](CCCCN)NC(=O)[C@H](CC(C)C)NC(=O)[C@H](CC(C)C)NC(=O)[C@H](CCCCN)NC(=O)[C@H](CCCCN)NC(=O)[C@@H](N)CC(C)C)C(=O)N[C@@H](C)C(=O)NCC(=O)O [LKKLLKLAKKLLKLAG] | –
10 (≈ 17.8 µg/mL) | 10 (≈ 17.8 µg/mL) | – | – | CC(C)C[C@H](NC(=O)[C@H](CCCCN)NC(=O)[C@H](C)NC(=O)[C@H](CC(C)C)NC(=O)[C@H](CCCCN)NC(=O)[C@H](CCCCN)NC(=O)[C@H](CC(C)C)NC(=O)[C@H](CC(C)C)NC(=O)[C@H](CCCCN)NC(=O)[C@H](CC(C)C)NC(=O)[C@H](CC(C)C)NC(=O)[C@H](CCCCN)NC(=O)[C@H](CCCCN)NC(=O)[C@@H](N)CC(C)C)C(=O)N[C@@H](C)C(=O)NCC(=O)O [LKKLLKLLKKLAKLAG] | –
– | – | – | 3 µM and 6 µM | NCCCC[C@H](NC(=O)[C@H](CCCCN)NC(=O)[C@H](CCCN=C(N)N)NC(=O)[C@H](CCCN=C(N)N)NC(=O)[C@H](Cc1c[nH]c2ccccc12)NC(=O)[C@H](Cc1c[nH]c2ccccc12)NC(=O)[C@H](CCCN=C(N)N)NC(=O)[C@H](CCCCN)NC(=O)[C@H](CCCCN)NC(=O)[C@@H](N)CCCN=C(N)N)C(N)=O [RKKRWWRRKK] | MIC (Escherichia coli): 3 µM and 6 µM
> 250 | > 250 | – | – | CC(C)C[C@H](NC(=O)[C@H](C)NC(=O)[C@H](Cc1ccc(O)cc1)NC(=O)[C@H](CC(C)C)NC(=O)[C@H](CCCN=C(N)N)NC(=O)[C@H](C)NC(=O)[C@H](CC(C)C)NC(=O)[C@H](CO)NC(=O)[C@H](C)NC(=O)[C@H](CC(C)C)NC(=O)[C@H](CC(=O)O)NC(=O)[C@H](CCCN=C(N)N)NC(=O)[C@H](CCCN=C(N)N)NC(=O)[C@H](CCCN=C(N)N)NC(=O)[C@H](CCC(=O)O)NC(=O)[C@H](CCC(=O)O)NC(=O)[C@H](CO)NC(=O)[C@@H](NC(=O)[C@H](CCC(N)=O)NC(=O)[C@H](Cc1ccc(O)cc1)NC(=O)[C@@H](N)Cc1ccc(O)cc1)C(C)C)C(=O)N[C@@H](C)C(=O)N[C@@H](CCCN=C(N)N)C(N)=O [YYQVSEERRRDLASLARLYALAR] | –
